The numbers were not newly measured in patent US20160339123A1, “POLYBUTYLACRYLATE-BASED NANOCOMPOSITE PHOTOACOUSTIC IMAGING AGENT AND A PREPARATION METHOD THEREOF” (Wenzhou Institute of Biomaterials and Engineering, priority 2015, published 2016), which cites them from elsewhere.

For this series the following is noted: near infrared region.

Structures are written as SMILES.

Consider `CC1(C)C(/C=C/C=C/C=C/C=C2\N(CCCCS(=O)(=O)O)c3ccc4ccccc4c3C2(C)C)=[N+](CCCCS(=O)(=O)[O-])c2ccc3ccccc3c21` [indocyanine green], for which the absorption peak is reported as approximately 780 nm. On to `CN(C)c1ccc2nc3ccc(=[N+](C)C)cc-3sc2c1` [methylene blue], for which the absorption peak is recorded as approximately 664 nm.
